Reference: patent publication US5972598A, “Methods for preventing multidrug resistance in cancer cells” (priority 1995, dated 1999)
“Also recorded” adds a separate entry of the source. Read-outs that look alike come from different tables or passages of the source.

Key:
[1] = target: T1, P-glycoprotein (Homo sapiens, UniProt P08183); experiment: Dye efflux (Rh123 or DiOC2 (3)) assay of drug-treated K562 cells
Description: (§4) Top panel: Rh123 efflux from untreated cells (-) and from cells treated with 50 μM Ara-C (ARA) for 12 hours or with 10 μAra-C for 2 to 3 days.

[2] = test system: MDR1; assay type: cell-based, human
Description: The times of drug exposure are indicated.
(§1) (Commercially-available kits (for example, from GIBCO/BRL, Gaithersburg, Md.) can be advantageously modified for making cDNA using random hexamers.) PCR is then performed using the following primers: […]
Next, it was tested whether drug-induced MDR1 expression was maintained after the cytotoxic treatment. […] At different time points, MDR1 expression in the surviving cells was analyzed by dye efflux and immunofluorescence labeling with UIC2 (FIG. 3c) or by cDNA-PCR (FIG. 4e).

[3] = test system: MRP; experiment: Inhibition of MRP expression in H-9 cells; assay type: cell-based, human; design: Inhibition of MRP Expression: key to the marks not given beside the values
Description: PCR was performed using the following primers: […]
(where β2 M represents β2 microglobulin). PCR was performed for β2 M experiments under a regime consisting of 1 cycle comprising denaturation at 94° C. for 3 minutes, primer annealing at 60° C. for 30 seconds, and primer extension at 72° C. for 1 minute, followed by 19 cycles comprising denaturation at 94° C. for 30 seconds, primer annealing at 60° C. for 30 seconds, and primer extension at 72° C. for 1 minute, followed by a final cycle comprising denaturation at 94° C. for 30 seconds, primer annealing at 60° C. for 30 seconds, and primer extension at 72° C. for 5 minutes.

[4] = clinical trials; cited from earlier work
[5] = test system: PKC; details: cited from earlier work; for IC50: Hidaka et al., 1984
[6] = target: protein kinase A; details: Hidaka et al., 1984; cited from earlier work
[7] = test system: MDR1; experiment: Inhibition of cytotoxic drug (Ara-C) induced MDR1 expression by protein kinase inhibitors; assay type: cell-based, human
Description: FIG. 5. Effect of protein kinase inhibitors on MDR1 mRNA induction by cytotoxic drugs in H9 cells. […]
as §1
(where β2 M represents β2 microglobulin). PCR was performed for β2 M experiments under a regime consisting of 1 cycle comprising denaturation at 94° C. for 3 minutes, primer annealing at 60° C. for 30 seconds, and primer extension at 72° C. for 1 minute, followed by 19 cycles comprising denaturation at 94° C. for 30 seconds, primer annealing at 60° C. for 30 seconds, and primer extension at 72° C. for 1 minute, followed by a final cycle comprising denaturation at 94° C. for 30 seconds, primer annealing at 60° C. for 30 seconds, and primer extension at 72° C. for 5 minutes. MDR1 cDNA sequences were amplified using the identical protocol as for β2 M, but extending the amplification from 19 cycles to 25 cycles. In addition, the cDNA-PCR amplification protocol contained the following modifications: (i) Taq DNA polymerase was added to the PCR mixtures after initial heating of the samples to 94° C. (ii) The yield of the β2 -microglobulin-specific band, obtained after 22-28 cycles of PCR, was used as the primary criterion for equalizing the starting amounts of the cDNA templates in different preparations, in order to account for differential RNA degradation in cells subjected to different types of treatment. […] PCR products were detected by autoradiography.
(§2) Cells were plated in 6-well Falcon tissue culture plates at 3,300 cells per well, and incubated in the appropriate concentrations of drugs. Each of the protein kinase inhibitors to be tested were added at their appropriate final concentrations 45 minutes prior to MDR1 induction by the addition of Ara-C or TPA, with the exception of herbimycin A, which was added 12 hours prior to Ara-C or TPA, and tyrphostins A25 and B46, which were each added 16 hours prior to MDR1 induction by the addition of Ara-C or TPA. Cells were incubated overnight (TPA) or for 10 hours (Ara-C) at 37° C. under an atmosphere of 5% CO2 after the addition of the MDR1 inducing agents before harvesting for cDNA-PCR analysis.
In addition to these conditions, the analysis of certain drugs imposed added requirements. For experiments using calphostin C, cells were incubated under direct white light illumination. For experiments using D,L-threo-sphingosine, the cell culture medium was pre-treated with the appropriate concentration of the drug for one hour at 37° C. with continuous gentle mixing. After this pre-treatment, cells were resuspended in media supplemented with drug and incubated for 45 minutes as described above.
(§3) cDNA-PCR analyses on each culture treated with drugs, or in control cultures incubated in the absence or presence of Ara-C or TPA alone, were performed as described in Section 6.1.3 above.
To further evaluate the capacity of protein kinase inhibitors to suppress MDR1 induction by cytotoxic drugs and PKC agonists, H-9 human T cell leukemia cells were used in cDNA-PCR assays to examine induced MDR1 mRNA expression levels in the presence of such protein kinase inhibitors.

[8] = test system: MDR1; details: cited from earlier work
[9] = target: T1, P-glycoprotein
Description: as §4

[10] = test system: MDR1; experiment: Inhibition of PKC agonist (TPA or DOG) induced MDR1 expression; assay type: cell-based, human; details: for inhibition of TPA-induced MDR1 expression: H-9 cells, TPA 10 ng/ml overnight
Description: as §1
as §2, with “Each of the protein kinase inhibitors to be tested were added at their appropriate final concentrations 45 minutes prior to MDR1 induction by the addition of Ara-C” left out
as §3

[11] = test system: tumor; details: nude mice, cited from earlier work
[12] = test system: P-glycoprotein
Description: Mouse IgG2a isotype control antibody was obtained from Sigma. For staining of PBL with UIC2 mAB or isotype control, 10^6 cells were stained at 4° C. with 10 μg of the antibody for 30 minutes and, after two washes, stained for 30 minutes with 10 μg of FITC-conjugated goat anti-mouse IgG2a antibody (Fisher Scientific, Fairlawn, N.J.), diluted 1:2 with PBS plus 2% FCS. Cells were then washed twice with ice-cold PBS plus 2% FCS, stained with PI and kept on ice until analysis. Essentially the same protocol was used for staining of other cell types except that 2 μg of the secondary antibody were used per 10^6 cells. In some experiments, phycoerythrine (PE)-conjugated goat anti-mouse IgG2a was used as the secondary antibody; no PI was added in such cases.

[13] = K562 cells treated 3-5 days, then grown in absence of drug
[14] = KB-3-1 epidermoid carcinoma, 2 days
[15] = human leukemia and solid-tumor derived cell lines, subpopulation of treated cells

T1 sequence (P08183 whole entry): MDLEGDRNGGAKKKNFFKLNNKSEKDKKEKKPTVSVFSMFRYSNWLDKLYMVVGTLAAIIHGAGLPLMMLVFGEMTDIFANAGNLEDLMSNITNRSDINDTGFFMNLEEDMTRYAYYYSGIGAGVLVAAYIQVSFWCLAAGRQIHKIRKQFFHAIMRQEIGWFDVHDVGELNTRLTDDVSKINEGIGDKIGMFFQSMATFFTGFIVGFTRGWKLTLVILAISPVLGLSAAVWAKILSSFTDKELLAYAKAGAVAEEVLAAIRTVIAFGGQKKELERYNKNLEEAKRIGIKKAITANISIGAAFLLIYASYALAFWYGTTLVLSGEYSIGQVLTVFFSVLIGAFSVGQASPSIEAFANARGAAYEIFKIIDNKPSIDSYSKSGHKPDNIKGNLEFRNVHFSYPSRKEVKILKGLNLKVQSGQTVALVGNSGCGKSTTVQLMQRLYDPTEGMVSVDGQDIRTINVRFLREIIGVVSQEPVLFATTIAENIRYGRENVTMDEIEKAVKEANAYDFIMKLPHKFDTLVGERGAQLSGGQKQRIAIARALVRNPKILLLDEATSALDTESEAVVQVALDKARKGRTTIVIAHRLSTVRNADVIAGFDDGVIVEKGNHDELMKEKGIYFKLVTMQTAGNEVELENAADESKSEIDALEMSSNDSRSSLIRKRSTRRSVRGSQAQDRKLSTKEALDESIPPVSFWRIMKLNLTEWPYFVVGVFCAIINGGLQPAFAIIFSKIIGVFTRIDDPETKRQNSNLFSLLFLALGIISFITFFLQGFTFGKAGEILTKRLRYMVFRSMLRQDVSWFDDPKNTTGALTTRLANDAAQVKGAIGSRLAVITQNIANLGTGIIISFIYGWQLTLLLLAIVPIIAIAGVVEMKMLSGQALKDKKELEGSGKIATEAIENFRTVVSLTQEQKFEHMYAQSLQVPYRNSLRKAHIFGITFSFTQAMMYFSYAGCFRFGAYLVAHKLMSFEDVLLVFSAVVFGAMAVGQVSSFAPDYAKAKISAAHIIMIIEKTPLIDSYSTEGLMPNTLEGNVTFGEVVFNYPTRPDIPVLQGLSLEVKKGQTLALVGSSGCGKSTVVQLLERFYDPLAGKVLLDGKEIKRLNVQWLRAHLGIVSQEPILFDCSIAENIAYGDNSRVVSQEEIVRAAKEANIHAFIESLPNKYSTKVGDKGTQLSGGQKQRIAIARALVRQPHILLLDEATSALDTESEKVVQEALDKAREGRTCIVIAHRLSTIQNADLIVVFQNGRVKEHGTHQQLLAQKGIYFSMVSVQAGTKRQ

SMILES: COc1cccc2c1C(=O)c1c(O)c3c(c(O)c1C2=O)C[C@@](O)(C(=O)CO)C[C@@H]3O[C@H]1C[C@H](N)[C@H](O)[C@H](C)O1 [Adriamycin]
- treated cells showing efflux of Rh123 or DiOC2 (3) [1]: 3-10%
- MDR1 mRNA expression ([2]; H9 T-cell leukemia): MDR1 mRNA expression was induced
- MDR1 mRNA induction ([2]; K562 cells): induce MDR1 mRNA expression
- maintenance of MDR1 expression after removal of the drug [2, 13]: least several weeks
- MDR1 mRNA expression [2, 14]: MDR1 mRNA expression was induced
- MDR1 induction, mRNA and protein levels [2, 15]: MDR1 induction, both at the mRNA and at the protein levels, was observed

SMILES: Nc1ccn([C@@H]2O[C@H](CO)[C@@H](O)[C@@H]2O)c(=O)n1 [Ara-C, 1-β-D-arabinofuranosylcytosine]
- effect on MRP expression ([3]; 25 μM Ara-C, data not shown): slight decrease in MRP expression
- subpopulation of live cells showing efflux of Rh123 ([1]; Ara-C 12-72 hours): 3-17%
- maintenance of MDR1 expression after removal of the drug ([2]; Ara-C treated K562 population): up to 11 weeks
- MDR1 mRNA expression ([2]; EJ bladder carcinoma, 10 μM, 4 days): activated MDR1 mRNA expression
- MDR1 mRNA expression ([2]; H9 T-cell leukemia): activated MDR1 mRNA expression
- maintenance of MDR1 expression after removal of the drug [2, 13]: least several weeks
- MDR1 mRNA expression relative to β2 -glycoprotein ([2]; K562 cells, Ara-C): dose-dependent increase in MDR1 mRNA expression
- MDR1 mRNA expression [2, 14]: activated MDR1 mRNA expression
- P-glycoprotein expression (Rh123 accumulation or UIC2 immunoreactivity) ([2]; KG1 leukemia cells, Ara-C (10 μM, 1.5 days)): increased P-glycoprotein expression
- MDR1 induction, mRNA and protein levels [2, 15]: MDR1 induction, both at the mRNA and at the protein levels, was observed

SMILES: CCCCCCCCCCCCCCCCSCC(COC)COP(=O)([O-])OCC[N+](C)(C)C (stereo not drawn) [BM41440]
- MTD, oral [4]: 5 mg/kg body weight

SMILES: CC1CNCCN1S(=O)(=O)c1cccc2cnccc12 (stereo not drawn) [H7]
- IC50 [5]: 6 µM
- IC50 [6]: 3 µM
- prevention of MDR1 induction by chemotherapeutic drugs ([7]; 50 μM): prevent MDR1 induction

SMILES: N=C(N)NCCNS(=O)(=O)c1cccc2cnccc12 [HA1004]
- IC50 [5]: 40 µM
- IC50 [6]: 2.3 µM
- inhibition of MDR1 induction by Ara-C ([7]; H9 cells, 60 μM HA1004, 50 μM Ara-C 22 hr): no significant inhibition
- prevention of MDR1 induction ([7]; protein kinase inhibitor inactive against PKC): totally ineffective in preventing MDR1 induction

SMILES: O=[As][O-].[Na+] [arsenite]
- MDR1 expression [8]: increased

SMILES: COc1cccc2c1C(=O)c1c(O)c3c(c(O)c1C2=O)C[C@@](O)(C(C)=O)C[C@@H]3O[C@H]1C[C@H](N)[C@H](O)[C@H](C)O1 [daunorubicin]
- treated cells showing efflux of Rh123 or DiOC2 (3) [9]: 3-10%
- MDR1 induction, mRNA and protein levels [2]: MDR1 induction, both at the mRNA and at the protein levels, was observed
- MDR1 mRNA induction [2]: induce MDR1 mRNA expression

SMILES: NC(=O)NO [hydroxyurea]
- treated cells showing efflux of Rh123 or DiOC2 (3) [1]: 3-10%
- MDR1 induction, mRNA and protein levels [2]: MDR1 induction, both at the mRNA and at the protein levels, was observed
- MDR1 mRNA induction [2]: induce MDR1 mRNA expression

SMILES: CCCCCCCCCCCCCCCCSCC(COC)COP(=O)([O-])OCC[N+](C)(C)C (stereo not drawn) [ilmofosine]
- MTD, oral [4]: 200 mg/day

SMILES: COC(=O)C=Cc1cc(O)ccc1O [methyl-2,5-dihydroxycinnamate]
- inhibition of TPA-induced MDR1 expression ([10]; 32 μM): completely inhibited TPA-induced MDR1 expression
- Inhibition of MRP Expression ([3]; 32 μM): ++++
- inhibition of MRP expression ([3]; 32 μM): strongly inhibited; also recorded: capable of inhibiting MRP expression
- inhibition of Ara-C induced MDR1 expression ([7]; H9 cells, 25 μM Ara-C 10 h, 32 μM): ++++
- inhibition of Ara-C induced MDR1 expression ([7]; H-9 cells, 32 μM): completely inhibit Ara-C induced MDR1 expression
- inhibition of Ara-C induced MDR1 expression ([7]; H-9 cells, 32 μM and 64 μM): inhibits MDR1 expression at both 32 μM and 64 μM to essentially the same degree

SMILES: O=c1c(O)c(-c2ccc(O)c(O)c2)oc2cc(O)cc(O)c12 [quercetin]
- inhibition of protein kinase C ([5]; literature): inhibition of PKC activity
- effect on arsenite-induced increase in MDR1 expression [8]: can prevent an increase in MDR1 expression
- potentiation of anti-tumor effect of cisplatin ([11]; i.p. 20 mg/kg): potentiate the anti-tumor effect of cisplatin

SMILES: CN[C@@H]1C[C@H]2O[C@@](C)([C@@H]1OC)n1c3ccccc3c3c4c(c5c6ccccc6n2c5c31)C(=O)NC4 [staurosporine]
- inhibition of DOG-induced MDR1 induction ([10]; H9 cells, staurosporine 30 nM, 30 minutes prior to DOG): completely abolished MDR1 induction
- inhibition of TPA-induced MDR1 induction ([10]; H9 cells, staurosporine 30 nM, 30 minutes prior to TPA): completely abolished MDR1 induction
- inhibition of TPA-induced MDR1 expression ([10]; 30 nM): completely inhibited TPA-induced MDR1 expression
- anti-tumor effect at fraction of MTD ([11]; Meyer et al., 1989): 1/10
- maximum tolerated dose (MTD) ([11]; Meyer et al., 1989): 1 mg/kg
- prevention of MDR1 induction by TPA, diacylglycerol, Ara-C, vinblastine, methotrexate and Adriamycin ([7]; P-glycoprotein-negative cells, 30 nM): prevent MDR1 induction
- P-glycoprotein expression, inhibitor alone ([12]; KG1a cells, staurosporine 100 nM): significant increase in P-glycoprotein expression
- P-glycoprotein expression, inhibitor alone ([12]; KG1 cells): significant increase in P-glycoprotein expression
- MDR1 expression, inhibitor alone ([12]; P-glycoprotein-negative H9 cells, 30 nM): did not induce MDR1 expression

SMILES: CC[C@]1(O)C[C@@H]2CN(CCc3c([nH]c4ccccc34)[C@@](C(=O)OC)(c3cc4c(cc3OC)N(C)[C@H]3[C@@](O)(C(=O)OC)[C@H](OC(C)=O)[C@]5(CC)C=CCN6CC[C@]43[C@@H]65)C2)C1 [vinblastine]
- treated cells showing efflux of Rh123 or DiOC2 (3) [9]: 3-10%
- MDR1 induction, mRNA and protein levels [2]: MDR1 induction, both at the mRNA and at the protein levels, was observed
- MDR1 mRNA expression [2]: MDR1 mRNA expression was induced
- MDR1 mRNA induction [2]: induce MDR1 mRNA expression
